Values after ≈ are worked out from the molar mass of the structure shown.
Key:
KB [1] = assay: Cytotoxicity against human KB cells after 48 hrs in presence of exogenous DNA; assay type: functional, cell-based
Calf thymus DNA = assay: Binding affinity to calf thymus DNA; assay type: nucleic-acid assay, Bos taurus
KB [2] = assay: Cytotoxicity against human KB cells after 48 hrs; assay type: functional, cell-based

SMILES: C/C=C(\C)C(=O)OC(C)CC1CCCN1C(=O)CCCCCCCCC (stereo not drawn) [CONIOIDINE A]
- IC50 (KB [1]): 2.1 µg/mL
- Kd (Calf thymus DNA): 2.8 µM
- IC50 (KB [2]): 0.67 µg/mL (≈ 1.83 µM)

Source: ChEMBL document CHEMBL1147360, “Conioidines A and B, novel DNA-interacting pyrrolidines from Chamaesaracha conioides” (J Nat Prod, 1993)
